Consider 12 molecules from ChEMBL document CHEMBL1201862, “PubChem BioAssay data set” (2004).

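Interpolation was linear, between the two tested concentrations surrounding the appropriate level; five concentrations were tested over 48 hours in 96-well plates. The concentration for 50% growth inhibition is given as GI50.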 Activity calls are given as the source filed them. Cut-off read from the data, not from the text of the source: active = GI50 up to about 1.1 µM and inactive = higher.

Common to all, as to assay: growth of human tumour cells (NCI), 48 h
The test system of experiment [1] is MDA-MB-435.
Experiment [2] concerns HOP-62.
Experiment [3] relates to Malme-3M.
Experiment [4] concerns SK-MEL-5.
For experiment [5], the system named is CAKI-1.
Experiment [6] concerns SF-268.
Experiment [7] has as its system UO-31.
Experiment [8] has as its system A549.
For experiment [9], the system named is BT-549.
The test system of experiment [10] is MOLT-4.
Experiment [11] relates to SNB-19.
The test system of experiment [12] is DU-145.
Experiment [13] concerns HOP-92.
The subject of experiment [14] is ACHN.
Experiment [15] relates to LOX IMVI.
For experiment [16], the system named is HT-29.
Experiment [17] has as its system NCI-H226.
Experiment [18] concerns KM12.
Experiment [19] relates to SR.

As to `[N-]=[N+]=NC(c1ccccc1)(c1ccccc1)c1ccccc1`, the GI50 in experiment [1] was 19.1 µM (inactive); in [2] it was 19.5 µM (inactive); in experiment [3], 14.6 µM (inactive); in [4], 13.8 µM (inactive); in experiment [5] it was 17.4 µM (inactive); in [6] it was 18.5 µM (inactive). Moreover, the GI50 was 16 µM (inactive) in experiment [7]; 17 µM (inactive) in [8]; 19.7 µM (inactive) in experiment [9]; 16.1 µM (inactive) in [10]; 18.4 µM (inactive) in experiment [11]; 17.3 µM (inactive) in [12]. The GI50 in experiment [13] was 17.1 µM (inactive); in experiment [14], 15.7 µM (inactive); in experiment [15], 19.1 µM (inactive); in [16] it was 16 µM (inactive); in [17], 17.3 µM (inactive); in experiment [18], 18.2 µM (inactive).

Regarding `O=C(NCCCCNCCCNC(=O)C(F)(F)F)C(F)(F)F`, the GI50 in experiment [1], in experiment [2], in [4], in [5], in [6] and in experiment [7] was > 100 µM (inactive) each time. The GI50 in experiment [8], in experiment [9], in experiment [10], in [11], in experiment [12] and in [19] was > 100 µM (inactive) in each case. Besides, the GI50 in [13], in [14], in [16], in experiment [17] and in experiment [18] was > 100 µM (inactive) throughout.

On to `COc1ccc2oc(=O)c3c(c2c1C)OC(C)(C)C=C3`, for which the GI50 is > 100 µM (inactive) in [1]; > 100 µM (inactive) in experiment [2]; > 100 µM (inactive) in experiment [3]; > 100 µM (inactive) in [4]; > 100 µM (inactive) in experiment [5]; 23.2 µM (inactive) in experiment [6]. The GI50 is > 100 µM (inactive) in experiment [7]; > 100 µM (inactive) in experiment [8]; > 100 µM (inactive) in experiment [9]; 44.1 µM (inactive) in experiment [10]; > 100 µM (inactive) in experiment [11]; > 100 µM (inactive) in [12]. For the same molecule, the GI50 in experiment [19], in experiment [14], in [15], in [16], in experiment [17] and in experiment [18] was > 100 µM (inactive) in each case.

On to `CCn1c(CCl)nc2c1C(=O)c1ccccc1C2=O`, for which the GI50 is 1.69 µM (inactive) in experiment [1]; 2.42 µM (inactive) in experiment [2]; 1.04 µM (active) in experiment [3]; 0.42 µM (active) in experiment [4]; 2.61 µM (inactive) in experiment [6]; 3.4 µM (inactive) in experiment [8]. The GI50 in experiment [9] is 2.18 µM (inactive); in experiment [10] it was 0.356 µM (active); in experiment [11], 1.87 µM (inactive); in experiment [12], 2.67 µM (inactive); in [19], 0.401 µM (active); in [13], 2.14 µM (inactive). Further, the GI50 in experiment [14] was 3.72 µM (inactive); in experiment [16], 1.78 µM (inactive); in [17] it was 0.225 µM (active); in experiment [18] it was 1.73 µM (inactive).

On to `CCOC(=O)c1cnc(-n2[nH]c3c(c2=O)CCCC3)[nH]c1=O`, for which the GI50 in [1] is 47.8 µM (inactive); in experiment [3] it was 77.6 µM (inactive); in experiment [4], 75.2 µM (inactive); in experiment [5], 48.1 µM (inactive); in experiment [6], 55.8 µM (inactive); in experiment [7], 54.6 µM (inactive). The GI50 is 63.1 µM (inactive) in experiment [8]; 47.1 µM (inactive) in experiment [9]; 43 µM (inactive) in experiment [10]; > 100 µM (inactive) in experiment [11]; 57.9 µM (inactive) in [12]; 13.3 µM (inactive) in [19]. Also, the GI50 in [13] is 0.859 µM (active); in experiment [14] it was 50.2 µM (inactive); in experiment [16], 40.4 µM (inactive); in [17], 47.1 µM (inactive); in [18] it was 67.5 µM (inactive).

As for `O=[N+]([O-])c1ccc(-c2cn(-c3ccc(Cl)cc3)cn2)cc1`, the GI50 in experiment [1] was > 100 µM (inactive); in [2], 18.2 µM (inactive); in [3] it was > 100 µM (inactive); in [4] it was 34.2 µM (inactive); in [5], > 100 µM (inactive); in experiment [6], 14.2 µM (inactive). Moreover, the GI50 was 45 µM (inactive) in [7]; 27.4 µM (inactive) in experiment [8]; 59.2 µM (inactive) in experiment [9]; > 100 µM (inactive) in [10]; 67 µM (inactive) in experiment [11]; > 100 µM (inactive) in [12]. Also, the GI50 was > 100 µM (inactive) in [19]; 31.6 µM (inactive) in [14]; 56.4 µM (inactive) in [15]; > 100 µM (inactive) in [16]; 48.5 µM (inactive) in experiment [17]; > 100 µM (inactive) in experiment [18].

`c1ccc2c(C3CCN(CCN4CCOCC4)C3)c[nH]c2c1` (centres undefined): the GI50 in [1], in experiment [2], in experiment [3], in experiment [4], in experiment [5] and in experiment [6] was > 100 µM (inactive) each time. For the same molecule, the GI50 in experiment [7], in experiment [8], in experiment [9], in experiment [11], in experiment [12] and in experiment [19] was > 100 µM (inactive) in each case. In addition, the GI50 in [13], in [14], in experiment [15], in experiment [16] and in experiment [18] was > 100 µM (inactive) throughout.

`COc1ccc2nc3n(c2c1)CCc1cc(OC)c(OC)cc1-3`: the GI50 in [1] is 34.5 µM (inactive); in experiment [2] it was 58.2 µM (inactive); in [3], 91 µM (inactive); in experiment [4], 18.7 µM (inactive); in experiment [5], 42.4 µM (inactive); in experiment [6], > 100 µM (inactive). In addition, the GI50 is 44.5 µM (inactive) in experiment [8]; 30 µM (inactive) in [9]; 99.5 µM (inactive) in [11]; 83.8 µM (inactive) in experiment [12]; 56 µM (inactive) in experiment [13]; 81.5 µM (inactive) in [14]. For the same molecule, the GI50 in [15] was 45.8 µM (inactive); in experiment [16], 26.7 µM (inactive); in experiment [17] it was 54.3 µM (inactive); in experiment [18] it was 30 µM (inactive).

For the molecule `O=C(Cn1c2ccc(Br)cc2c2nc3ccccc3nc21)NNC(=O)NC1CCCCC1`, the GI50 in [1] was 32.7 µM (inactive); in experiment [2], 27.7 µM (inactive); in experiment [3] it was 52.2 µM (inactive); in [4], > 100 µM (inactive); in experiment [5], 30.3 µM (inactive); in experiment [6] it was 45.5 µM (inactive). The GI50 in experiment [7] is 2.52 µM (inactive); in experiment [8] it was 18.3 µM (inactive); in experiment [9], > 100 µM (inactive); in experiment [10], 25.2 µM (inactive); in experiment [11], 89.1 µM (inactive); in experiment [12], 24.9 µM (inactive). The GI50 in experiment [19] is 31 µM (inactive); in experiment [14] it was > 100 µM (inactive); in experiment [15], 41.4 µM (inactive); in experiment [18], 37.4 µM (inactive).

Turning to `CSc1c(C(=O)Nc2ccccc2)c(N)nn1-c1ccccc1`, the GI50 was > 100 µM (inactive) in [1]; > 100 µM (inactive) in experiment [3]; > 100 µM (inactive) in [4]; > 100 µM (inactive) in experiment [5]; > 100 µM (inactive) in [6]; 67.9 µM (inactive) in experiment [7]. Moreover, the GI50 in experiment [8], in experiment [9], in [10], in experiment [11], in [12] and in experiment [19] was > 100 µM (inactive) each time. Also, the GI50 in [15], in experiment [16], in experiment [17] and in experiment [18] was > 100 µM (inactive) in each case.

For the molecule `COc1cc2c(c(OC)c1)[C@H](C)N(Cc1ccccc1)C(C)C2` (some centres undefined), the GI50 in [1] is 16.3 µM (inactive); in experiment [2] it was > 100 µM (inactive); in [3], 62.4 µM (inactive); in experiment [4] it was 25.4 µM (inactive); in experiment [5], 64.9 µM (inactive); in [6], 80.2 µM (inactive). The GI50 in experiment [7] is 54.2 µM (inactive); in [8], 43.5 µM (inactive); in experiment [9], 61.8 µM (inactive); in experiment [10] it was 22.7 µM (inactive); in experiment [11], > 100 µM (inactive); in experiment [12] it was > 100 µM (inactive). For the same molecule, the GI50 in experiment [19] is 25.8 µM (inactive); in experiment [14], 31.3 µM (inactive); in experiment [15], 30.1 µM (inactive); in experiment [16], 9.57 µM (inactive); in [17], 23.7 µM (inactive); in [18] it was 30.2 µM (inactive).

Turning to `CC(=O)C1C(=O)C(=O)N(c2ccc([N+](=O)[O-])cc2)C1=O` (centres undefined), the GI50 in experiment [1], in experiment [2], in experiment [4], in experiment [5], in [6] and in [7] was > 100 µM (inactive) throughout. Besides, the GI50 was 80.4 µM (inactive) in experiment [8]; > 100 µM (inactive) in experiment [9]; > 100 µM (inactive) in experiment [10]; > 100 µM (inactive) in experiment [11]; > 100 µM (inactive) in experiment [12]; > 100 µM (inactive) in experiment [13]. The GI50 in experiment [14], in [15], in experiment [16], in experiment [17] and in experiment [18] was > 100 µM (inactive) each time.
